The source of these data is publication PMC9569468 (International Journal of Molecular Sciences, 2022).

Data set [1] deals with SARS-CoV-2. Conditions: read-out: IC50 of FDA-approved drugs applied in COVID-19 treatment protocols; cited from earlier work.
The subject of data set [2] is SARS-CoV-2 "NRC-03-nhCoV". Put plainly: microbe, parasite or virus in culture. Type of data set: cell-based.
The test system of data set [3] is MERS-CoV "NRCE-HKU270". The data set is described as follows: microbe, parasite or virus in culture. Type of data set: cell-based. The settings on record: for IC50: Middle East respiratory syndrome-related coronavirus, Vero C1008, read-out: Antiviral Activities MERS-CoV IC50 (µM).
Data set [4] can be described thus: in vitro. The settings on record: African green monkey.
In data set [5] the test system is NRC-03-nhCoV in Vero-E6 cells. Put plainly: microbe, parasite or virus in culture. The settings on record: Severe acute respiratory syndrome coronavirus 2, Vero C1008, read-out: Half maximal inhibitory concentration (IC50) against NRC-03-nhCoV. Type of data set: cell-based, SARS-CoV-2.
Where [6] appears, read: Severe acute respiratory syndrome coronavirus 2, Vero C1008, read-out: Antiviral Activities SARS-CoV-2 IC50 (µM).
Setting [7] is: read-out: Antiviral Activities SARS-CoV-2 IC50.

Like-named read-outs stand apart in the source and are kept apart here.

Take `CC[C@H]1OC(=O)[C@H](C)[C@@H](O[C@H]2C[C@@](C)(OC)[C@@H](O)[C@H](C)O2)[C@H](C)[C@@H](O[C@@H]2O[C@H](C)C[C@H](N(C)C)[C@H]2O)[C@](C)(O)C[C@@H](C)CN(C)[C@H](C)[C@@H](O)[C@]1(C)O` [Azithromycin]: the IC50 in data set [1] is 2.12 µM.
`O=C1Nc2ccccc2[C@]12C[C@@H](S(=O)(=O)c1ccccc1)[C@H]1CCCN12` [Compound 4a, (1’R,3R,7a’R)-1’-(Phenylsulfonyl)-1’,2’,5’,6’,7’,7a’-hexahydrospiro[indoline-3,3’-pyrrolizin]-2-one]: the melting point (commonly the temperature, or range, at which the solid turns liquid) was determined as 298 °C. In addition, the “Antiviral Activities SARS-CoV-2 SI (selectivity index)” value in data set [2] was 11.24. In addition, in data set [2] (setting [6]), the IC50 came out at 29 µM. In addition, in data set [3], the “Antiviral Activities MERS-CoV SI (selectivity index)” value came to 5.25 and the IC50 stood at 62 µM. In addition, the CC50 – broadly, the concentration that lowers cell viability or growth by half – in data set [4] (Cytotoxicity (CC50, µM)) stood at 326 µM.
For the compound `O=C1Nc2ccc(Cl)cc2[C@]12C[C@@H](S(=O)(=O)c1ccccc1)[C@H]1CSCN12` [Compound 4b, (3R,7’R,7a’R)-5-Chloro-7’-(phenylsulfonyl)-1’,6’,7’,7a’-tetrahydro-3’H-spiro[indoline-3,5’-pyrrolo [1,2-c]thiazole]-2-one], the melting point turned out to be 282 °C. Also, the “Antiviral Activities SARS-CoV-2 SI (selectivity index)” value in data set [2] is recorded as 5.38. Further, the IC50 in data set [2] (setting [6]) was found to be 194 µM. Besides, in data set [3], the “Antiviral Activities MERS-CoV SI (selectivity index)” value is recorded as 9.95 and the IC50 was 105 µM. The same compound displayed a CC50 in data set [4] (Cytotoxicity (CC50, µM)) of 1040 µM.
For the compound `O=C1Nc2ccc([N+](=O)[O-])cc2[C@]12C[C@@H](S(=O)(=O)c1ccccc1)[C@H]1C[C@H](O)CN12` [Compound 4c, (1’R,3R,6’S,7a’R)-6’-Hydroxy-5-nitro-1’-(phenylsulfonyl)-1’,2’,5’,6’,7’,7a’-hexahydrospiro[indoline-3,3’-pyrrolizin]-2-one], the IC50 in data set [2] (setting [6]) is 17 µM; in data set [2] (setting [7]), 18 µM; in data set [3], 65 µM; in data set [5] it was 8.79 µM. The “Antiviral Activities MERS-CoV SI (selectivity index)” value in data set [3] worked out at 16.84. For the same compound, the CC50 in data set [4] (Cytotoxicity (CC50, µM)) amounted to 1100 µM.
The compound `O=C1Nc2ccc(Br)cc2[C@]12C[C@@H](S(=O)(=O)c1ccccc1)[C@H]1C[C@H](O)CN12` [Compound 4d, (1’R,3R,6’S,7a’R)-5-Bromo-6’-hydroxy-1’-(phenylsulfonyl)-1’,2’,5’,6’,7’,7a’-hexahydrospiro[indoline-3,3’-pyrrolizin]-2-one] yielded a melting point of 220 °C. In data set [2], the “Antiviral Activities SARS-CoV-2 SI (selectivity index)” value came out at 8.58. For the same compound, the IC50 in data set [2] (setting [6]) is 24 µM. Further, in data set [3], the “Antiviral Activities MERS-CoV SI (selectivity index)” value is recorded as 8.95 and the IC50 was 23 µM. In data set [4] (Cytotoxicity (CC50, µM)), this compound showed a CC50 of 206 µM.
In the case of `O=C1Nc2ccc([N+](=O)[O-])cc2[C@]12C[C@@H](S(=O)(=O)c1ccccc1)[C@H]1CSCN12` [Compound 4e, (3R,7’R,7a’R)-5-Nitro-7’-(phenylsulfonyl)-1’,6’,7’,7a’-tetrahydro-3’H-spiro[indoline-3,5’-pyrrolo [1,2-c]thiazole]-2-one], the melting point was 95 °C. The “Antiviral Activities SARS-CoV-2 SI (selectivity index)” value in data set [2] worked out at 17. Also, in data set [2] (setting [6]), the IC50 stood at 18 µM. The IC50 in data set [2] (setting [7]) turned out to be 17 µM. Also, in data set [3], the “Antiviral Activities MERS-CoV SI (selectivity index)” value is 3.90 and the IC50 is 74 µM. This compound also yielded a CC50 in data set [4] (Cytotoxicity (CC50, µM)) of 289 µM.
The compound `COc1ccc2c(c1)[C@]1(C[C@@H](S(=O)(=O)c3ccccc3)[C@H]3CSCN31)C(=O)N2` [Compound 4f, (3R,7’R,7a’R)-5-Methoxy-7’-(phenylsulfonyl)-1’,6’,7’,7a’-tetrahydro-3’H-spiro[indoline-3,5’-pyrrolo [1,2-c]thiazole]-2-one] had a melting point of 105 °C. For the same compound, the “Antiviral Activities SARS-CoV-2 SI (selectivity index)” value in data set [2] was under 1. Moreover, in data set [2] (setting [6]), the IC50 is 2250 µM. Further, in data set [3], the “Antiviral Activities MERS-CoV SI (selectivity index)” value is listed as 3.92 and the IC50 was found to be 88 µM. For the same compound, the CC50 in data set [4] (Cytotoxicity (CC50, µM)) came to 345 µM.
Turning to `O=C1Nc2ccc(Cl)cc2[C@]12C[C@@H](S(=O)(=O)c1ccccc1)[C@H]1CCCN12` [Compound 4g, (1’R,3R,7a’R)-5-Chloro-1’-(phenylsulfonyl)-1’,2’,5’,6’,7’,7a’-hexahydrospiro[indoline-3,3’-pyrrolizin]-2-one], the melting point was found to be 254 °C. Moreover, in data set [2], the “Antiviral Activities SARS-CoV-2 SI (selectivity index)” value was determined as 1. Also, in data set [2] (setting [6]), the IC50 turned out to be 405 µM. Moreover, in data set [3], the “Antiviral Activities MERS-CoV SI (selectivity index)” value amounted to 3.97 and the IC50 was 101 µM. This compound had a CC50 in data set [4] (Cytotoxicity (CC50, µM)) of 405 µM.
In turn, `COc1ccc2c(c1)[C@]1(C[C@@H](S(=O)(=O)c3ccccc3)[C@H]3CCCN31)C(=O)N2` [Compound 4h, (1’R,3R,7a’R)-5-Methoxy-1’-(phenylsulfonyl)-1’,2’,5’,6’,7’,7a’-hexahydrospiro[indoline-3,3’-pyrrolizin]-2-one] returned a melting point of 240 °C. Also, the “Antiviral Activities SARS-CoV-2 SI (selectivity index)” value in data set [2] came out at 15.43. Also, the IC50 in data set [2] (setting [6]) came to 37 µM. In data set [3], the “Antiviral Activities MERS-CoV SI (selectivity index)” value came to 38.06 and the IC50 amounted to 15 µM. The cytotoxic concentration (CC50) in data set [4] (Cytotoxicity (CC50, µM)) was determined as 571 µM.
As to `O=C1Nc2ccccc2[C@]12C[C@@H](S(=O)(=O)c1ccccc1)[C@H]1CSCN12` [Compound 4i, (3R,7’R,7a’R)-7’-(Phenylsulfonyl)-1’,6’,7’,7a’-tetrahydro-3’H-spiro[indoline-3,5’-pyrrolo [1,2-c]thiazole]-2-one], the results for the IC50 in data set [2] (setting [6]), in data set [3] and in data set [5] were 34 µM, 11 µM and 14.7 µM, respectively. Besides, it took 1990 µM to reach half-maximal cytotoxicity in data set [4] (Cytotoxicity (CC50, µM)) (CC50).
Compound `O=C1Nc2ccc(Br)cc2[C@]12C[C@@H](S(=O)(=O)c1ccccc1)[C@H]1CCCN12` [Compound 4j, (1’R,3R,7a’R)-5-Bromo-1’-(phenylsulfonyl)-1’,2’,5’,6’,7’,7a’-hexahydrospiro[indoline-3,3’-pyrrolizin]-2-one] displayed a melting point of 250 °C. Moreover, the “Antiviral Activities SARS-CoV-2 SI (selectivity index)” value in data set [2] came to 1.01. In addition, in data set [2] (setting [6]), the IC50 is 197 µM. Moreover, in data set [3], the “Antiviral Activities MERS-CoV SI (selectivity index)” value is under 1 and the IC50 was found to be 376 µM. This compound had a CC50 in data set [4] (Cytotoxicity (CC50, µM)) of 200 µM.
Consider `CN1C(=O)[C@@]2(C[C@@H](S(=O)(=O)c3ccccc3)[C@H]3CCCN32)c2ccccc21` [Compound 4k, (1’R,3R,7a’R)-1-Methyl-1’-(phenylsulfonyl)-1’,2’,5’,6’,7’,7a’-hexahydrospiro[indoline-3,3’-pyrrolizin]-2-one], for which the IC50 came out at 27 µM in data set [2] (setting [6]), 66 µM in data set [3] and 5.98 µM in data set [5]. Moreover, the “Antiviral Activities MERS-CoV SI (selectivity index)” value in data set [3] is listed as 13.37. For the same compound, the CC50 in data set [4] (Cytotoxicity (CC50, µM)) was found to be 883 µM; in data set [4] (Half maximal cytotoxic concentration (CC50)) it was 882 µM.
`O=C1N(CCBr)c2ccccc2[C@]12C[C@@H](S(=O)(=O)c1ccccc1)[C@H]1CCCN12` [Compound 4l, (1’R,3R,7a’R)-1-(2-Bromoethyl)-1’-(phenylsulfonyl)-1’,2’,5’,6’,7’,7a’-hexahydrospiro[indoline-3,3’-pyrrolizin]-2-one] gave a melting point of 70 °C. Also, the “Antiviral Activities SARS-CoV-2 SI (selectivity index)” value in data set [2] is reported as 1.92. Further, in data set [2] (setting [6]), the IC50 stood at 107 µM. In data set [3], the “Antiviral Activities MERS-CoV SI (selectivity index)” value worked out at 1.41 and the IC50 was 146 µM. Also, it took 206 µM to reach half-maximal cytotoxicity in data set [4] (Cytotoxicity (CC50, µM)) (CC50).
In the case of `O=C1Nc2cc(Cl)ccc2[C@]12C[C@@H](S(=O)(=O)c1ccccc1)[C@H]1CCCN12` [Compound 4m], in data set [2], the “Antiviral Activities SARS-CoV-2 SI (selectivity index)” value is given as under 1. Further, the IC50 in data set [2] (setting [6]) was determined as 305 µM. In data set [3], the “Antiviral Activities MERS-CoV SI (selectivity index)” value amounted to 1.17 and the IC50 is 191 µM. Besides, the CC50 in data set [4] (Cytotoxicity (CC50, µM)) was found to be 225 µM.
Turning to `O=C1Nc2cc(Cl)ccc2[C@]12C[C@@H](S(=O)(=O)c1ccccc1)[C@H]1CSCN12` [Compound 4n, (3R,7’R,7a’R)-6-Chloro-7’-(phenylsulfonyl)-1’,6’,7’,7a’-tetrahydro-3’H-spiro[indoline-3,5’-pyrrolo [1,2-c]thiazole]-2-one], the IC50 in data set [2] (setting [6]) came to 667 µM; in data set [3] it was 15 µM. Also, in data set [4] (Cytotoxicity (CC50, µM)), the CC50 turned out to be 222 µM.
Take `CCC(CC)COC(=O)[C@H](C)N[P@](=O)(OC[C@H]1O[C@@](C#N)(c2ccc3c(N)ncnn23)[C@H](O)[C@@H]1O)Oc1ccccc1` [Remdesivir, reference compound]: the “Antiviral Activities SARS-CoV-2 SI (selectivity index)” value in data set [2] amounted to 70.40. Also, the IC50 amounted to 6.72 µM in data set [2] (setting [6]), 2.74 µM in data set [3] and 6.72 µM in data set [5]. Besides, in data set [3], the “Antiviral Activities MERS-CoV SI (selectivity index)” value is 172.66. Also, the midpoint of cytotoxicity in data set [4] (Cytotoxicity (CC50, µM)), the CC50, lay at 473 µM.
With `NC(=O)c1ncn([C@@H]2O[C@H](CO)[C@@H](O)[C@H]2O)n1` [Ribavirin], the IC50 in data set [1] was 70 µM.
For `CC(C)c1nc(CN(C)C(=O)N[C@H](C(=O)N[C@@H](Cc2ccccc2)C[C@H](O)[C@H](Cc2ccccc2)NC(=O)OCc2cncs2)C(C)C)cs1` [Ritonavir], the IC50 in data set [1] was at least 100 µM.
